Results published in patent US8765783B2, “Pharmaceutical composition for treatment of disease due to vascular constriction or vasodilation” (Ono Pharmaceuticals Co., Ltd., priority 2002, dated 2014).
Entries after “also recorded” stand apart in the source; their conditions may differ.

Assays:
[1] = tested on: canine removed renal artery; experiment: Vasoconstrictor action of canine renal artery by S1P; parameters: species or system canine (beagle); conditions: for constriction of canine renal arteries: serotonin 1 μM (positive control), S1P 10 μM; for inhibitory effect on vasoconstrictive action of canine renal arteries by S1P: 10 μM test compound added 40 minutes after S1P
Excerpt: (§1) The removed renal arteries of euthanized male beagle (12 months old) was immersed in Krebs-Henseleit solution [112 mmol/L sodium chloride, 5.9 mmol/L potassium chloride, 2.0 mmol/L calcium chloride, 1.2 mmol/L magnesium chloride, 1.2 mmol/L monobasic sodium phosphate, 25.0 mmol/L sodium hydrogen carbonate NaHCO3, 11.5 mmol/L glucose, saturated by mixed gas (95% O2+5% CO2)]. They were divided by 3-4 mm with ophthalmic scissors and made as ringed samples. Made ringed tissues were hung in magnus tube (volume: 10 mL) filled with Krebs-Henseleit solution [37±1° C., aerated with mixed gas (95% O2+5% CO2)] using a hook. Next, they were loaded with 1 g resting tension stabilized for about 60 minutes, then constrictive movement was recorded on a recorder through strain compression amplifier (AP-601G, Nihon Kohden) from Force displacement transducer (FD pickup TB-611T). Serotonin (1 μM) is used as positive control for constriction action. After that, S1P (10 μM) adding, vasoconstrictive action was measured. As a result, serotonin and S1P constricted renal arteries.

[2] = tested on: rat removed thoracic aorta; experiment: Vasoconstrictive action of rat removed thoracic aorta by S1P or phenylephrine; conditions: for constriction of rat thoracic aorta: phenylephrine 10 μM (positive control), S1P 10 μM
Excerpt: The removed thoracic aorta of euthanized SD rat (7-13 weeks old) was immersed in Krebs-Henseleit solution [112 mmol/L sodium chloride, 5.9 mmol/L potassium chloride, 2.0 mmol/L calcium chloride, 1.2 mmol/L magnesium chloride, 1.2 mmol/L monobasic sodium phosphate, 25.0 mmol/L sodium hydrogen carbonate NaHCO3, 11.5 mmol/L glucose, saturated by mixed gas (95% O2+5% CO2)]. They were divided by 3-4 mm with ophthalmic scissors and made as vortical samples. Made samples were hung in magnus tube (volume: 10 mL) filled with Krebs-Henseleit solution [37±1° C., aerated with mixed gas (95% O2+5% CO2)] using a hook. Next, they were loaded with 0.5 g resting tension stabilized for about 60 minutes, then constrictive movement was recorded on a recorder through strain compression amplifier (AP-601G, Nihon Kohden) from Force displacement transducer (FD pickup TB-611T). Sympathetic nerve stimulant, phenylephrine, (10 μM) is used as positive control for constriction action. After that, S1P (10 μM) adding, vasoconstrictive action was measured. As a result, phenylephrine and S1P constricted rat thoracic aorta.

[3] = tested on: SD rat; experiment: Increase of rat blood pressure by S1P; format: in vivo; conditions: anesthetized male SD rat
Method: Male SD Rat (8 weeks old-10 weeks old) was anesthetized by injection of pentobarbital sodium (50 mg/mL/kg), after midline incision in the cervical region, trachea was exposed by exfoliation of tracheal muscle layer and cannula made of polyethylene was inserted into trachea. Next, catheter made of polyethylene was inserted into the common carotid artery and the common jugular vein. Catheter inserted into the common carotid artery was connected to the piezotransducer and the blood pressure was recorded on the recorder through strain compression amplifier. After the above mentioned operation was finished, in the case of the spinal chord was broken, the spinal chord was broken by insertion of stainless pole into the spinal chord cavity. After the spinal chord was broken, tracheal cannula was immediately connected into the artificial breathing device for small animals and artificial ventilation was performed under the conditions of a ventilatory volume 6 mL/kg and velocity 60 times/min. After then, S1P was administered and we confirmed blood pressure was increased. […] As a result, the compound (3) inhibited the increase of blood pressure by S1P.

[4] = tested on: removed rat heart; experiment: Removed rat heart (Langendorff heart); conditions: Langendorff heart mode; for contractive force of heart muscle: EDG-5 antagonist
Excerpt: Rat (CD(SD)IGS, male, Charles River Japan Inc., 8 weeks old-10 weeks old, 300-450 g) was anesthetized by diethylether, opened the abdominal cavity, injected intravenously with heparin and then, exsanguinated to death. The heart was quickly removed by opening the chest cavity and the removed heart was immersed into cooled Krebs-Henseleit solution. The tissues were trimmed away under the cooling, aortic arches were inserted into the heart functional measuring equipment and fixed with sutures without leaking out. The rat heart function was measured using the heart functional measuring equipment (model IPH-W2, Labo-support). The equipment was used in the Langendorff Heart mode (non-working heart mode) and load was 68-70 mmHg. […] Catheter filled with physiological saline was inserted into the left ventricle, the catheter was connected to the piezotransducer (DX-100, Nihon Kohden) and the left ventricle pressure (LVP) was measured through strain compression amplifier (AP-601G, Nihon Kohden). Heart rate was calculated using LVP data with the heart rate measuring equipment (AT-601G, Nihon Kohden) and dLVP/dt was calculated with differential processor (EQ-641G, Nihon Kohden). Probes of electromagnetic flowmeter (model FF-020T, inside diameter 2 mm, Nihon Kohden) were set on the way to the passage of nutrient solution and the flow rate of nutrient solution (corresponding the blood flow rate of coronary artery) was measured using electromagnetic flowmeter (MFV-3100, Nihon Kohden). Administration of S1P and the compounds was performed by injection of dilution with nutrient solution into the passage of nutrient solution using infusion pump. The injection rate of drug solution was set as the flow rate of nutrient solution before starting of administration. […] Using the above mentioned model, effect of EDG-5 antagonist on heart function was examined. […] EDG-5 antagonist, the compound (1), the compound (2) and the compound (3) increased the flow rate of nutrient solution. In addition, they increased contractive force of heart muscle at the same time. […] It was considered that S1P had no direct chronotropic action and inotropic action on pacemaker and heart muscle and S1P had lowering effect on heart function by contracting the coronary blood vessels and ischemia.

[5] = tested on: canine removed basilar artery; experiment: Vasoconstrictor action of canine removed basilar artery by S1P; parameters: species or system canine (beagle); conditions: for constriction of canine basilar arteries: serotonin 1 μM (positive control), S1P 10 μM; for inhibitory effect on vasoconstrictive action of canine basilar artery by S1P: 10 μM test compound added 20 minutes after S1P (10 μM)
Excerpt: as §1, with “basilar” for “renal”
As a result, test compounds having EDG-5 antagonist activity inhibited vasoconstrictive action by S1P.

[6] = molecular target: T1, human EDG-5 (Homo sapiens, UniProt O95136); experiment: Antagonistic activity for EDG-5 by monitoring concentration change of intracellular calcium ion; format: cell-based; conditions: CHO cells overexpressing human EDG-5; S1P 100 nM
T1 construct: expressed in transfected cells; host or cells: CHO cells
Method: Chinese hamster ovary (CHO) cells overexpressed human EDG-5 gene were cultured in Ham's F12 medium (GIBCO BRL) containing 10% FBS (fetal bovine serum), penicillin/streptomycin, and blasticidin (5 μg/ml). Cultured cells were incubated in a Fura2 (5 μM)-AM solution [Ham's F12 medium containing FBS (10%), HEPES buffer (20 mM, pH7.4), and probenecid (2.5 mM)] at 37° C. for 60 minutes. Then they were washed once with a Hank's solution (2.5 mM) containing probenecid and immersed into the same solution. A plate was set on a fluorescent drug screening system, and the concentration of intracellular calcium ion was measured for 30 seconds with no stimulation. A solution of a compound (dimethyl sulfoxide (DMSO) solution of 1 nM to 10 μM at the final concentration) to be tested was added. After lapse of 5 minutes, S1P (final concentration: 100 nM) was added, the concentration of intracellular calcium ion before and after the addition was measured every 3 seconds (excitation wave length: 340 nm and 380 nm; fluorescent wave length: 500 nm). […]

[7] = tested on: rabbit vasoconstrictive action by S1P; experiment: Rabbit vasoconstrictive action by S1P
[8] = molecular target: T2, human EDG-3 (Homo sapiens, UniProt Q99500); experiment: Antagonist evaluation for EDG-3, intracellular calcium ion; format: cell-based; conditions: cells overexpressing human EDG-3
T2 construct: expressed in transfected cells

[9] = tested on: rabbit thoracic aorta; experiment: Vasoconstrictive action of rabbit thoracic aorta by S1P
[10] = tested on: canine thoracic aorta; experiment: Vasoconstrictive action of canine thoracic aorta by S1P
[11] = molecular target: T3, human EDG-1 (Homo sapiens, UniProt P21453); experiment: Antagonist evaluation for EDG-1, intracellular calcium ion; format: cell-based; conditions: cells overexpressing human EDG-1
T3 construct: expressed in transfected cells

[12] = tested on: rat removed basilar artery; experiment: Vasoconstrictor action of rat removed basilar artery; conditions: 3 μM (FIG. 3, FIG. 4)
Method: Basilar arteries were removed from male rat (CD(SD)IGS, male, Charles River Japan, Inc., 8 weeks old-10 weeks old, 350-450 g) and quickly immersed in cooled Krebs-Henseleit solution. Removed basilar arteries were divided by about 3 mm width with ophthalmic scissors and made as ringed samples. Samples hung in micro tissue organ bath (MTOB-1: Preimetech Corp.) filled with Krebs-Henseleit solution (37° C.). They were loaded with about 0.2 g resting tension stabilized for about 60 minutes, and then constrictive movement was recorded on a recorder (linearcoda WR3320: Graphtec Corp.) through strain compression amplifier (AP-601G, Nihon Kohden) from micro tissue organ bath.

[13] = tested on: removed rabbit portal vein/mesenteric vein; experiment: Constriction of the removed rabbit vein by S1P
Method: The portal vein/mesenteric vein was removed form male rabbit (NZ White, about 2 kg) under anesthesia and vertical sample of width 2-3 mm and length 3-4 mm was made. Made samples were hung in magnus tube (volume: 5 mL) filled with Krebs-Henseleit solution (37° C.) using a hook. They were loaded with 0.5 g resting tension stabilized for about 60 minutes, then constrictive movement was recorded on a recorder (linear recorder WR3320: Graphtec Corp.) through strain compression amplifier (AP-601G, Nihon Kohden) from Force displacement transducer (FD pickup TB-611T).

T2 sequence (Q99500 whole entry): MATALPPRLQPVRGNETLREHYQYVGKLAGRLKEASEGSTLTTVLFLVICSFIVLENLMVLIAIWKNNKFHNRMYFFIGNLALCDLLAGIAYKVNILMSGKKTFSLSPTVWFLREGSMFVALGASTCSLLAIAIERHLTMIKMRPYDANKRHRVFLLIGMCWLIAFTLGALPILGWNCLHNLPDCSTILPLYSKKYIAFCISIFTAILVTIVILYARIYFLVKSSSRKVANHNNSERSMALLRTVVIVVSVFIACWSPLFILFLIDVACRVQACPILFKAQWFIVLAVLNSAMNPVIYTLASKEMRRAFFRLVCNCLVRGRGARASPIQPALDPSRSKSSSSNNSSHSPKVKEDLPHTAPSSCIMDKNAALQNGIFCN
T1 sequence (O95136 whole entry): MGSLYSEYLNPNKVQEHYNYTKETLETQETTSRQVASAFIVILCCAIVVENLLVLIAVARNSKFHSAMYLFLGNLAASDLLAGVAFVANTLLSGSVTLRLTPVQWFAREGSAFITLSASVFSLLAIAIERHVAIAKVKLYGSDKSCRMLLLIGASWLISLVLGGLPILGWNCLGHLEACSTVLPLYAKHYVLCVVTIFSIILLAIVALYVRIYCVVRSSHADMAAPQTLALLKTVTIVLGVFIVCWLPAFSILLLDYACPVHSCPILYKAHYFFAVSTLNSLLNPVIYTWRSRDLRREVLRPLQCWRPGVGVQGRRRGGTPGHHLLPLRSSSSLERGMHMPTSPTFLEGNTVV
T3 sequence (P21453 whole entry): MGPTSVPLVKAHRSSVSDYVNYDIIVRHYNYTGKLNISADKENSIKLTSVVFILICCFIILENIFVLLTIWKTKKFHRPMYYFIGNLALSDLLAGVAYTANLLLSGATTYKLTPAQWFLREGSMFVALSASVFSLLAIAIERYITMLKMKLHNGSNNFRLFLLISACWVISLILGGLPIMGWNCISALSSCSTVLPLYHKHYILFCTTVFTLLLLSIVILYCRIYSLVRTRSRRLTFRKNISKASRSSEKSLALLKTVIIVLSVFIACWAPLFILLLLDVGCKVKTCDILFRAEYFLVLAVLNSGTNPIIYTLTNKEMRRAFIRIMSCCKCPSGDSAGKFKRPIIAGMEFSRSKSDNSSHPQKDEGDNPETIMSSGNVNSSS

SMILES	constriction of canine renal arteries [1]	constriction of rat thoracic aorta [2]	constriction of canine basilar arteries [5]	IC50 [6] [µM]	inhibitory effect on vasoconstrictive action of canine renal arteries by S1P [1]	inhibitory effect on rabbit vasoconstrictive action by S1P [7]	flow rate of nutrient solution (corresponding the blood flow rate of coronary artery) [4]	contractive force of heart muscle [4]	inhibitory effect on vasoconstrictive action of canine basilar artery by S1P [5]	IC50 [8] [µM]	IC50 [11] [µM]	also measured
CCCCCCCCCCCCC/C=C/[C@@H](O)[C@@H](N)COP(=O)(O)O [Example S1P, (2S,3R,4E)-2-amino-3-hydroxyoctadeca-4-enyl-1-phosphate]	constricted	constricted	constricted	–	–	–	–	–	–	–	–	effect of S1P on rat blood pressure [3]: increased; effect of S1P on contractive force of heart muscle [4]: dose-dependently decreased
Cc1nn(C)c2nc(NNC(=O)Nc3c(Cl)cncc3Cl)cc(C(C)C)c12 [compound (1), N-(1H-1,3-dimethyl-4-isopropylpyrazolo[3,4-b]pyridin-6-yl)amino-N′-(3,5-dichloropyridin-4-yl)urea]	–	–	–	0.5	inhibited; also recorded: suppression	showed inhibitory effect	increased	increased	inhibited; also recorded: suppression	> 10	> 10	inhibition of vasoconstrictive action of rat thoracic aorta by S1P ([2]; 10 μM test compound added an hour after S1P (10 μM)): specifically inhibited; also recorded: suppression; inhibition of vasoconstrictive action of rat thoracic aorta by phenylephrine ([2]; 10 μM test compound, phenylephrine 10 μM): did not inhibit; also recorded: not showing the suppression; inhibitory effect on vasoconstrictive action of rabbit thoracic aorta by S1P [9]: showed inhibitory effect; inhibitory effect on vasoconstrictive action of canine thoracic aorta by S1P [10]: showed inhibitory effect
O=C(Nc1cccc(C(F)(F)F)c1)N1CCC(O)(c2ccc(Br)cc2)CC1 [compound (2), 4-(4-bromophenyl)-4-hydroxy-N-(3-(trifluoromethyl)phenyl)-1-piperidinecarboxamide]	–	–	–	0.4	inhibited; also recorded: suppression	showed inhibitory effect	increased	increased	inhibited; also recorded: suppression	> 10	> 10	inhibitory effect on vasoconstrictor action of rat removed basilar artery by S1P [12]: inhibitory effect; also recorded: suppression; inhibitory effect on contraction of vein by S1P [13]: inhibitory effect; also recorded: suppression
CNC[C@H](O)c1cccc(O)c1 [phenylephrine]	–	constricted	–	–	–	–	–	–	–	–	–	–
NCCc1c[nH]c2ccc(O)cc12 [serotonin]	constricted	–	constricted	–	–	–	–	–	–	–	–	–
